Patent US7141648B2, “Synthesis of cyclosporin analogs” (priority 2001, dated 2006)
Where two headings read alike, the source gives them in different places.

Experiments:
[1] = test system: hearts transplanted from Wistar Furth rats to Lewis rats; assay: rat heart transplant model; assay type: in vivo
Excerpt: If graft dysfunction was noted during the 30-day post-transplantation period, the animal was sacrificed. If the animal survived longer than 30 days post-transplantation, the test and control articles were discontinued and the animal was allowed to continue until graft dysfunction or up to 100 days post-transplantation.

[2] = test system: islets from a CBA/J mouse transplanted into diabetic Balb/c mouse recipients; assay: islet cell allotransplantation mouse model; settings: especially apparent at 25 mg/kg/day
Excerpt: Blood glucose was monitored daily until the time of graft failure, as defined by a glucose level greater than 17 mmol/L on two consecutive days.

[3] = test system: Male DBA/1 Lac J mice immunized with chick type II collagen; assay: collagen-induced arthritis model in the mouse; assay type: in vivo; settings: for negative erosion scores compared to vehicle treatment group: PIP joint
Protocol: Male DBA/1 Lac J mice, kept under virus antibody free conditions, were immunized subcutaneously at 8 to 10 weeks of age with 100 microgram of chick type II collagen, emulsified in Freund's complete adjuvant. […] Animals assigned to the treatment protocol (12/group) were dosed starting on the day of disease onset (˜Day 28) until sacrifice on Day 38.
Evaluated parameters included mortality, serum creatinine, histology, and outcome assessments, such as clinical scoring (visual), hind paw swelling, histological scoring, erosion scoring, and immunohistochemistry.
Erosion scoring was done in a blinded manner by examining sagittal sections of the proximal interphalangeal (PIP) joint of the middle digit for the presence or absence of erosions (defined as demarcated defects in cartilage or bone filled with inflammatory tissue). This approach allowed for comparisons of the same joint.

[4] = test system: New Zealand White rabbits immunized with ovalbumin; assay: antigen-induced arthritis model in the rabbit; assay type: in vivo
Protocol: New Zealand White rabbits, maintained under specific pathogen free conditions, were immunized with 10 mg of ovalbumin in saline emulsified with Freund's complete adjuvant that was given intramuscularly and subcutaneously into several sites in the nape of the neck. Fourteen days later, all animals started receiving 2 daily intra-articular injections of 5 mg ovalbumin and 65 ng of human recombinant transforming growth factor 2 in saline.
Animals assigned to the treatment protocol (8/group) were dosed starting on the day of disease onset (˜Day 28) until sacrifice on Day 42.
Evaluated parameters included mortality, body weight, serum creatinine, histology, and outcome assessments such as knee joint swelling, synovial fluid counts, gross postmortem analysis, and histology.

[5] = test system: rats, dogs, and primates; assay: repeated-dose oral toxicity studies; assay type: in vivo
[6] = for Area under the curve / Cmax: male rabbits, i.v. 10 mg/kg/day, mean ± SD
Protocol: (§1) On Days 1 and 7, blood samples were collected prior to drug administration and at 0.5, 1, 2, 4, 8, 12, 18, and 24 hours post-dose to generate a pharmacokinetic profile. Other evaluated parameters included clinical observations, body weight, food consumption, hematology, clinical chemistry, gross pathology, and histopathological examination of selected tissues/organs.
Blood samples were analyzed via high performance liquid chromatography coupled with mass spectrometry (LCMS).

[7] = test system: rabbits; assay: toxicokinetic/nephrotoxicity study in the rabbit model, 30 days
Protocol: as §1

C=C/C=C/C[C@@H](C)[C@@H](O)[C@H]1C(=O)N[C@@H](CC)C(=O)N(C)CC(=O)N(C)[C@@H](CC(C)C)C(=O)N[C@@H](C(C)C)C(=O)N(C)[C@@H](CC(C)C)C(=O)N[C@@H](C)C(=O)N[C@H](C)C(=O)N(C)[C@@H](CC(C)C)C(=O)N(C)[C@@H](CC(C)C)C(=O)N(C)[C@@H](C(C)C)C(=O)N1C [ISATX247]
graft function after discontinuation of dosing ([1]; 100 days post-transplant (70 days post discontinuation of dosing), a number of animals): still had functioning grafts at 100 days post-transplant
increase of survival time over Cyclosporine A ([1]; optimal dose of 1.75 mg/kg/day): approximately 3 fold
toxicity compared to cyclosporine A as the dose level increased [2]: less toxic than cyclosporine A
negative erosion scores compared to vehicle treatment group ([3]; 250 μg/mouse i.p. daily): higher negative erosion scores
prevention of the development of joint erosions ([3]; 500 μg/mouse): significantly prevent the development of joint erosions
negative erosion scores compared to vehicle treatment group ([3]; 500 μg/mouse i.p. daily): significantly higher
synovial fluid counts ([4]; prevention protocol): significant reductions
synovial histopathological scores compared to vehicle control ([4]; prevention protocol, after 28 days of therapy, s.c.): significant decrease
potency compared to cyclosporine A in treatment and prevention of arthritis ([4]; rabbit, in vivo): equivalent or potentially more potent than cyclosporine A
macroscopic arthritis score ([4]; treatment protocol): significant reduction
synovial histopathological scores of animals with established arthritis compared to vehicle controls ([4]; treatment protocol, 14 days of treatment): Significant amelioration
only toxicological effect noted in all species [5]: diarrhea/loose feces
tolerability [5]: well-tolerated
pharmacokinetic parameters in female rabbits compared with male rabbits ([6]; female rabbits, 10 mg/kg/day, exception: maximum concentration on Day 7): not significantly different
Area under the curve ([6]; Day 1): 5659 ± 1309 ng·h/mL
Cmax ([6]; Day 1): 1915 ± 149 ng/mL
Area under the curve ([6]; Day 7): 5697 ± 1373 ng·h/mL
Cmax ([6]; Day 7): 1959 ± 470 ng/mL
examination of organs, female rabbits ([7]; 15 mg/kg, 3 female rabbits that completed the study): No changes
examination of organs, male rabbits ([7]; 15 mg/kg, male rabbits): decrease in spermatogenesis
Percent Change in Serum Creatinine Levels Over Baseline ([7]; male rabbits, 10 mg/kg, Day 15): +1%
Percent Change in Serum Creatinine Levels Over Baseline ([7]; male rabbits, 10 mg/kg, Day 30): +10%
Percent Change in Serum Creatinine Levels Over Baseline ([7]; male rabbits, 15 mg/kg, Day 15): −19%
Percent Change in Serum Creatinine Levels Over Baseline ([7]; male rabbits, 15 mg/kg, Day 30): −11%
hematological parameters ([7]; rabbits): No significant changes
